In PMC10408569, “Recruitment of hexahydroquinoline as anticancer scaffold targeting inhibition of wild and mutants EGFR (EGFR^WT, EGFR^T790M, and EGFR^L858R)” (Journal of Enzyme Inhibition and Medicinal Chemistry, 2023):

Key:
T-47D = experiment: NCI-60 anticancer screening (SRB); format: cell-based; details: Homo sapiens, T47D, breast cancer, one dose 10 μM, read-out: Growth Inhibition Percentage (GI %)
SK-MEL-5 = experiment: NCI-60 anticancer screening (SRB); format: cell-based; details: Homo sapiens; SK-MEL-5, melanoma; one dose 10 μM; read-out: Growth Inhibition Percentage (GI %)
UO-31 = experiment: NCI-60 anticancer screening (SRB); format: cell-based; details: Homo sapiens; UO-31, renal cancer; one dose 10 μM; read-out: Growth Inhibition Percentage (GI %)
SK-MEL-2 = experiment: NCI-60 anticancer screening (SRB); format: cell-based; details: Homo sapiens; SK-MEL-2, melanoma; one dose 10 μM; read-out: Growth Inhibition Percentage (GI %)
HT29 = experiment: NCI-60 anticancer screening (SRB); format: cell-based; details: Homo sapiens, HT-29; HT29, colon cancer; one dose 10 μM; read-out: Growth Inhibition Percentage (GI %)
OVCAR-4 = experiment: NCI-60 anticancer screening (SRB); format: cell-based; details: Homo sapiens; OVCAR-4, ovarian cancer; one dose 10 μM; read-out: Growth Inhibition Percentage (GI %)
COLO 205 = experiment: NCI-60 anticancer screening (SRB); format: cell-based; details: Homo sapiens; COLO 205, colon cancer; one dose 10 μM; read-out: Growth Inhibition Percentage (GI %)
LOX IMVI = experiment: NCI-60 anticancer screening (SRB); format: cell-based; details: Homo sapiens, melanoma, one dose 10 μM, read-out: Growth Inhibition Percentage (GI %)
HCC-2998 = experiment: NCI-60 anticancer screening (SRB); format: cell-based; details: Homo sapiens; HCC-2998, colon cancer; one dose 10 μM; read-out: Growth Inhibition Percentage (GI %)
MOLT-4 = experiment: NCI-60 anticancer screening (SRB); format: cell-based; details: Homo sapiens; MOLT-4, leukemia; one dose 10 μM; read-out: Growth Inhibition Percentage (GI %)
NCI-H322M = experiment: NCI-60 anticancer screening (SRB); format: cell-based; details: Homo sapiens, NSC lung cancer, one dose 10 μM, read-out: Growth Inhibition Percentage (GI %)
NCI/ADR-RES = experiment: NCI-60 anticancer screening (SRB); format: cell-based; details: Homo sapiens, ovarian cancer, one dose 10 μM, read-out: Growth Inhibition Percentage (GI %)
NCI-H460 = experiment: NCI-60 anticancer screening (SRB); format: cell-based; details: Homo sapiens; NCI-H460, NSC lung cancer; one dose 10 μM; read-out: Growth Inhibition Percentage (GI %)
SW-620 = experiment: NCI-60 anticancer screening (SRB); format: cell-based; details: Homo sapiens; SW-620, colon cancer; one dose 10 μM; read-out: Growth Inhibition Percentage (GI %)
NCI 60 cancer cell lines = experiment: NCI-60 anticancer screening (SRB), whole panel; format: cell-based, human; details: mean across the NCI-60 panel; one dose 10 μM
HL-60(TB) = experiment: NCI-60 anticancer screening (SRB); format: cell-based; details: Homo sapiens, leukemia, one dose 10 μM, read-out: Growth Inhibition Percentage (GI %)
SN 12C = experiment: NCI-60 anticancer screening (SRB); format: cell-based; details: Homo sapiens, SN12C; SN 12C, renal cancer; one dose 10 μM; read-out: Growth Inhibition Percentage (GI %)
OVCAR-3 = experiment: NCI-60 anticancer screening (SRB); format: cell-based; details: Homo sapiens; OVCAR-3, ovarian cancer; one dose 10 μM; read-out: Growth Inhibition Percentage (GI %)
MDA-MB-231 = experiment: NCI-60 anticancer screening (SRB); format: cell-based; details: Homo sapiens; MDA-MB-231, breast cancer; one dose 10 μM; read-out: Growth Inhibition Percentage (GI %)
MCF7 = experiment: NCI-60 anticancer screening (SRB); format: cell-based; details: Homo sapiens; MCF7, breast cancer; one dose 10 μM; read-out: Growth Inhibition Percentage (GI %)
HOP-62 = experiment: NCI-60 anticancer screening (SRB); format: cell-based; details: Homo sapiens; HOP-62, NSC lung cancer; one dose 10 μM; read-out: Growth Inhibition Percentage (GI %)
BT-549 = experiment: NCI-60 anticancer screening (SRB); format: cell-based; details: Homo sapiens; BT-549, breast cancer; one dose 10 μM; read-out: Growth Inhibition Percentage (GI %)
KM 12 = experiment: NCI-60 anticancer screening (SRB); format: cell-based; details: Homo sapiens, KM12; KM 12, colon cancer; one dose 10 μM; read-out: Growth Inhibition Percentage (GI %)
UACC-62 = experiment: NCI-60 anticancer screening (SRB); format: cell-based; details: Homo sapiens; UACC-62, melanoma; one dose 10 μM; read-out: Growth Inhibition Percentage (GI %)
M14 = experiment: NCI-60 anticancer screening (SRB); format: cell-based; details: Homo sapiens; M14, melanoma; one dose 10 μM; read-out: Growth Inhibition Percentage (GI %)
TK-10 = experiment: NCI-60 anticancer screening (SRB); format: cell-based; details: Homo sapiens; TK-10, renal cancer; one dose 10 μM; read-out: Growth Inhibition Percentage (GI %)
A498 = experiment: NCI-60 anticancer screening (SRB); format: cell-based; details: Homo sapiens; A498, renal cancer; one dose 10 μM; read-out: Growth Inhibition Percentage (GI %)
NCI-H522 = experiment: NCI-60 anticancer screening (SRB); format: cell-based; details: Homo sapiens; NCI-H522, NSC lung cancer; one dose 10 μM; read-out: Growth Inhibition Percentage (GI %)
786-0 = experiment: NCI-60 anticancer screening (SRB); format: cell-based; details: Homo sapiens; 786-0, renal cancer; one dose 10 μM; read-out: Growth Inhibition Percentage (GI %)
CAKI-1 = experiment: NCI-60 anticancer screening (SRB); format: cell-based; details: Homo sapiens; CAKI-1, renal cancer; one dose 10 μM; read-out: Growth Inhibition Percentage (GI %)
HS 578T = experiment: NCI-60 anticancer screening (SRB); format: cell-based; details: Homo sapiens; HS 578T, breast cancer; one dose 10 μM; read-out: Growth Inhibition Percentage (GI %)
RXF 393 = experiment: NCI-60 anticancer screening (SRB); format: cell-based; details: Homo sapiens; RXF 393, renal cancer; one dose 10 μM; read-out: Growth Inhibition Percentage (GI %)

Row | SMILES | inhibition at 10 µM (T-47D) | inhibition at 10 µM (SK-MEL-5) | inhibition at 10 µM (UO-31) | inhibition at 10 µM (SK-MEL-2) | inhibition at 10 µM (HT29) | inhibition at 10 µM (OVCAR-4) | inhibition at 10 µM (COLO 205) | inhibition at 10 µM (LOX IMVI) | inhibition at 10 µM (HCC-2998) | inhibition at 10 µM (MOLT-4) | inhibition at 10 µM (NCI-H322M) | inhibition at 10 µM (NCI/ADR-RES) | inhibition at 10 µM (NCI-H460) | inhibition at 10 µM (SW-620) | GI % mean (NCI 60 cancer cell lines) | inhibition at 10 µM (HL-60(TB)) | inhibition at 10 µM (SN 12C) | inhibition at 10 µM (OVCAR-3) | inhibition at 10 µM (MDA-MB-231) | inhibition at 10 µM (MCF7) | also measured
1 | CCOC(=O)C1=C(N)N(c2ccc(C)cc2)C2=C(C(=O)CC(C)(C)C2)C1c1ccccc1Br (racemic) [6e, (±)-Ethyl 2-amino-4–(2-bromophenyl)-7,7-dimethyl-1–(4-methylphenyl)-5-oxo-1,4,5,6,7,8-hexahydroquinoline-3-carboxylate] | 30% | 23% | 24% | 15% | 37% | 17% | 37% | 11% | 11% | 71% | < 10% | < 10% | 46% | 54% | 22% | 111% | 15% | 15% | < 10% | 43% | inhibition at 10 µM (HOP-62): < 10%; inhibition at 10 µM (BT-549): < 10%; inhibition at 10 µM (KM 12): 16%; inhibition at 10 µM (UACC-62): 28%; inhibition at 10 µM (M14): 17%; inhibition at 10 µM (TK-10): < 10%; inhibition at 10 µM (A498): < 10%; inhibition at 10 µM (NCI-H522): 32%; inhibition at 10 µM (786-0): 17%; inhibition at 10 µM (CAKI-1): 30%; melting point: 236 to 238 °C; inhibition at 10 µM (HS 578T): < 10%; inhibition at 10 µM (RXF 393): 14%
2 | CCOC(=O)C1=C(N)N(c2ccccc2)C2=C(C(=O)CC(C)(C)C2)C1c1ccc(OC)cc1 (racemic) [8f, (±)-Ethyl2-amino-4–(4-methoxyphenyl)-7,7-dimethyl-5-oxo-1-phenyl-1,4,5,6,7,8-hexahydroquinoline-3-carboxylate] | 11% | < 10% | < 10% | 16% | < 10% | < 10% | < 10% | < 10% | < 10% | 14% | < 10% | < 10% | < 10% | < 10% | - ((-) = GI % mean less than 10) | < 10% | < 10% | < 10% | < 10% | 13% | inhibition at 10 µM (HOP-62): < 10%; inhibition at 10 µM (BT-549): < 10%; inhibition at 10 µM (KM 12): < 10%; inhibition at 10 µM (UACC-62): < 10%; inhibition at 10 µM (M14): < 10%; inhibition at 10 µM (TK-10): < 10%; inhibition at 10 µM (A498): < 10%; inhibition at 10 µM (NCI-H522): < 10%; inhibition at 10 µM (786-0): 11%; inhibition at 10 µM (CAKI-1): 22%; melting point: 169 to 171 °C; inhibition at 10 µM (HS 578T): 12%; inhibition at 10 µM (RXF 393): < 10%
3 | CCOC(=O)C1=C(N)N(c2ccc(Cl)cc2)C2=C(C(=O)CC(C)(C)C2)C1c1ccc(Cl)cc1 (racemic) [8e, (±)-Ethyl 2-amino-1,4-bis (4-chlorophenyl)-7,7-dimethyl-5-oxo-1,4,5,6,7,8-hexahydroquinoline-3-carboxylate] | 42% | 46% | 34% | < 10% | 46% | 54% | 53% | 11% | 11% | 89% | < 10% | 32% | 59% | 33% | 32% | 62% | < 10% | 16% | 24% | 56% | inhibition at 10 µM (HOP-62): < 10%; inhibition at 10 µM (BT-549): 21%; inhibition at 10 µM (KM 12): 38%; inhibition at 10 µM (UACC-62): 28%; inhibition at 10 µM (M14): 49%; inhibition at 10 µM (TK-10): 11%; inhibition at 10 µM (A498): < 10%; inhibition at 10 µM (NCI-H522): 19%; inhibition at 10 µM (786-0): 23%; inhibition at 10 µM (CAKI-1): 19%; melting point: 220 to 222 °C; inhibition at 10 µM (HS 578T): 44%; inhibition at 10 µM (RXF 393): 35%
4 | CCOC(=O)C1=C(N)N(c2ccc(Cl)cc2)C2=C(C(=O)CC(C)(C)C2)C1c1ccc(Cl)cc1Cl (racemic) [10d, (±)-Ethyl 2-amino-1–(4-chorophenyl)-4–(2,4-dichlorophenyl)-7,7-dimethyl-5-oxo-1-phenyl-1,4,5,6,7,8-hexahydroquinoline-3-carboxylate] | 74% | 51% | 65% | 37% | 43% | 56% | 53% | < 10% | 23% | 71% | 29% | 47% | 49% | < 10% | 48% | 79% | 47% | 49% | 42% | 70% | inhibition at 10 µM (HOP-62): 46%; inhibition at 10 µM (BT-549): 24%; inhibition at 10 µM (KM 12): 54%; inhibition at 10 µM (UACC-62): 45%; inhibition at 10 µM (M14): 30%; inhibition at 10 µM (TK-10): 30%; inhibition at 10 µM (A498): 23%; inhibition at 10 µM (NCI-H522): 51%; inhibition at 10 µM (786-0): 31%; inhibition at 10 µM (CAKI-1): 54%; inhibition at 10 µM (HS 578T): < 10%; inhibition at 10 µM (RXF 393): 38%
